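The compound was tested at five concentrations on cells cultured in 96-well plates, with a 48-hour exposure period. The concentration for full growth arrest is given as TGI.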
How the values were obtained:
Experiment in all cases: NCI tumour cell line growth inhibition, 48 h
HCC-2998 colon = tested on: HCC-2998 colon
SF-539 CNS = tested on: SF-539 CNS
LXFL 529 NSCLC = tested on: LXFL 529 NSCLC
RPMI-8226 leukemia = tested on: RPMI-8226 leukemia
EKVX NSCLC = tested on: EKVX NSCLC
SK-MEL-28 melanoma = tested on: SK-MEL-28 melanoma
HOP-92 NSCLC = tested on: HOP-92 NSCLC
OVCAR-5 ovarian = tested on: OVCAR-5 ovarian
SF-268 CNS = tested on: SF-268 CNS
UO-31 renal = tested on: UO-31 renal
M19-MEL melanoma = tested on: M19-MEL melanoma
DMS 114 small cell lung = tested on: DMS 114 small cell lung
MOLT-4 leukemia = tested on: MOLT-4 leukemia
SNB-19 CNS = tested on: SNB-19 CNS
LOX IMVI melanoma = tested on: LOX IMVI melanoma
U251 CNS = tested on: U251 CNS
HL-60(TB) leukemia = tested on: HL-60(TB) leukemia
A549 NSCLC = tested on: A549 NSCLC
SR leukemia = tested on: SR leukemia
TK-10 renal = tested on: TK-10 renal
SK-MEL-2 melanoma = tested on: SK-MEL-2 melanoma
M14 melanoma = tested on: M14 melanoma
SK-MEL-5 melanoma = tested on: SK-MEL-5 melanoma
SW-620 colon = tested on: SW-620 colon
OVCAR-8 ovarian = tested on: OVCAR-8 ovarian
SN12C renal = tested on: SN12C renal
NCI-H23 lung = tested on: NCI-H23 lung
DMS 273 small cell lung = tested on: DMS 273 small cell lung
KM12 colon = tested on: KM12 colon
NCI-H460 lung = tested on: NCI-H460 lung
OVCAR-4 ovarian = tested on: OVCAR-4 ovarian
HCT-116 colon = tested on: HCT-116 colon
OVCAR-3 ovarian = tested on: OVCAR-3 ovarian
ACHN renal = tested on: ACHN renal
IGROV1 ovarian = tested on: IGROV1 ovarian
SNB-75 CNS = tested on: SNB-75 CNS
KM20L2 colon = tested on: KM20L2 colon
HOP-62 NSCLC = tested on: HOP-62 NSCLC
HOP-18 NSCLC = tested on: HOP-18 NSCLC
UACC-257 melanoma = tested on: UACC-257 melanoma
NCI-H226 lung = tested on: NCI-H226 lung
RXF 393 renal = tested on: RXF 393 renal
HCT-15 colon = tested on: HCT-15 colon
CCRF-CEM leukemia = tested on: CCRF-CEM leukemia
HT29 colon = tested on: HT29 colon
A498 renal = tested on: A498 renal
DLD-1 colon = tested on: DLD-1 colon
XF 498 CNS = tested on: XF 498 CNS
COLO 205 colon = tested on: COLO 205 colon
SNB-78 CNS = tested on: SNB-78 CNS
K-562 leukemia = tested on: K-562 leukemia
CAKI-1 renal = tested on: CAKI-1 renal
SF-295 CNS = tested on: SF-295 CNS
NCI-H522 lung = tested on: NCI-H522 lung
MALME-3M melanoma = tested on: MALME-3M melanoma
SK-OV-3 ovarian = tested on: SK-OV-3 ovarian
UACC-62 melanoma = tested on: UACC-62 melanoma

SMILES: CCN(CC)CCC(=O)c1ccccc1
- TGI (HCC-2998 colon): > 100 µM
- TGI (SF-539 CNS): 44.2 µM
- TGI (LXFL 529 NSCLC): 32.1 µM
- TGI (RPMI-8226 leukemia): 15.6 µM
- TGI (EKVX NSCLC): > 100 µM
- TGI (SK-MEL-28 melanoma): 33 µM
- TGI (HOP-92 NSCLC): 28.5 µM
- TGI (OVCAR-5 ovarian): 40.9 µM
- TGI (SF-268 CNS): 40.5 µM
- TGI (UO-31 renal): 93 µM
- TGI (M19-MEL melanoma): 56.1 µM
- TGI (DMS 114 small cell lung): 41.8 µM
- TGI (MOLT-4 leukemia): 42.2 µM
- TGI (SNB-19 CNS): > 100 µM
- TGI (LOX IMVI melanoma): 36 µM
- TGI (U251 CNS): 47.4 µM
- TGI (HL-60(TB) leukemia): 43.9 µM
- TGI (A549 NSCLC): > 100 µM
- TGI (SR leukemia): 35.3 µM
- TGI (TK-10 renal): 43.4 µM
- TGI (SK-MEL-2 melanoma): > 100 µM
- TGI (M14 melanoma): 31.5 µM
- TGI (SK-MEL-5 melanoma): > 100 µM
- TGI (SW-620 colon): 41.1 µM
- TGI (OVCAR-8 ovarian): 58 µM
- TGI (SN12C renal): 35.2 µM
- TGI (NCI-H23 lung): 45.6 µM
- TGI (DMS 273 small cell lung): 33.5 µM
- TGI (KM12 colon): > 100 µM
- TGI (NCI-H460 lung): 97.8 µM
- TGI (OVCAR-4 ovarian): 40.5 µM
- TGI (HCT-116 colon): 31.8 µM
- TGI (OVCAR-3 ovarian): 38.8 µM
- TGI (ACHN renal): 29.7 µM
- TGI (IGROV1 ovarian): > 100 µM
- TGI (SNB-75 CNS): 38.8 µM
- TGI (KM20L2 colon): 49.5 µM
- TGI (HOP-62 NSCLC): > 100 µM
- TGI (HOP-18 NSCLC): 30.1 µM
- TGI (UACC-257 melanoma): 61.4 µM
- TGI (NCI-H226 lung): > 100 µM
- TGI (RXF 393 renal): 34.7 µM
- TGI (HCT-15 colon): 38.5 µM
- TGI (CCRF-CEM leukemia): 36.9 µM
- TGI (HT29 colon): 70.2 µM

SMILES: COC(=O)C1=COC2OC3/C(=C\c4ccc(O)c(OC)c4)C(=O)OC34C=CC1C24 (stereo not drawn)
- TGI (HCC-2998 colon): 22.9 µM
- TGI (SF-539 CNS): 31.2 µM
- TGI (LXFL 529 NSCLC): 27.1 µM
- TGI (A498 renal): 45.4 µM
- TGI (RPMI-8226 leukemia): > 100 µM
- TGI (SK-MEL-28 melanoma): 33.7 µM
- TGI (HOP-92 NSCLC): 44.6 µM
- TGI (OVCAR-5 ovarian): 32.6 µM
- TGI (SF-268 CNS): 35.3 µM
- TGI (UO-31 renal): 28.3 µM
- TGI (DLD-1 colon): 32.5 µM
- TGI (M19-MEL melanoma): 27.3 µM
- TGI (XF 498 CNS): 18.4 µM
- TGI (DMS 114 small cell lung): 39.5 µM
- TGI (COLO 205 colon): 43.8 µM
- TGI (MOLT-4 leukemia): > 100 µM
- TGI (SNB-78 CNS): 39.4 µM
- TGI (SNB-19 CNS): 35.3 µM
- TGI (U251 CNS): 28.5 µM
- TGI (HL-60(TB) leukemia): 27.7 µM
- TGI (K-562 leukemia): 37.6 µM
- TGI (A549 NSCLC): 32.4 µM
- TGI (SR leukemia): > 100 µM
- TGI (TK-10 renal): 31 µM
- TGI (SK-MEL-2 melanoma): 23.7 µM
- TGI (M14 melanoma): 14.7 µM
- TGI (SK-MEL-5 melanoma): > 100 µM
- TGI (CAKI-1 renal): 41.7 µM
- TGI (SW-620 colon): 35.9 µM
- TGI (OVCAR-8 ovarian): 37.7 µM
- TGI (SN12C renal): 35.1 µM
- TGI (NCI-H23 lung): 32.5 µM
- TGI (DMS 273 small cell lung): 30 µM
- TGI (SF-295 CNS): 32.5 µM
- TGI (KM12 colon): 26.8 µM
- TGI (NCI-H460 lung): 31.7 µM
- TGI (NCI-H522 lung): 28.8 µM
- TGI (OVCAR-4 ovarian): 34.4 µM
- TGI (HCT-116 colon): 34.4 µM
- TGI (OVCAR-3 ovarian): 28.2 µM
- TGI (ACHN renal): 28.3 µM
- TGI (IGROV1 ovarian): 40.3 µM
- TGI (MALME-3M melanoma): 31 µM
- TGI (SNB-75 CNS): 25.2 µM
- TGI (KM20L2 colon): 33.6 µM
- TGI (HOP-62 NSCLC): 39.5 µM
- TGI (SK-OV-3 ovarian): 31 µM
- TGI (UACC-257 melanoma): 32.5 µM
- TGI (NCI-H226 lung): 29.2 µM
- TGI (UACC-62 melanoma): 36.4 µM
- TGI (HCT-15 colon): 27.7 µM
- TGI (CCRF-CEM leukemia): 49.2 µM
- TGI (HT29 colon): 33.5 µM
